Experimental data as given in patent publication US10517961B2, “Drug formulation based on particulates comprising polysaccharide-vitamin conjugate” (ZY Therapeutics, Inc., priority 2015, dated 2019).

Test system: human non-small lung cancer cells
Experiment: In vitro cytotoxicity
Assay type: cell-based
Conditions: 72 hrs, cell survival ratio

CC(=O)O[C@H]1C(=O)[C@@]2(C)[C@H]([C@H](OC(=O)c3ccccc3)[C@]3(O)C[C@H](OC(=O)[C@H](O)[C@@H](NC(=O)c4ccccc4)c4ccccc4)C(C)=C1C3(C)C)[C@]1(OC(C)=O)CO[C@@H]1C[C@@H]2O [paclitaxel]
IC50: ~10 nM
